One test concerns the target TYK2 (Homo sapiens (Human), UniProt P29597). The experiment in a line: Tyk2 activity inhibition assay (radioactive kinase assay / Caliper assay). The format is biochemical. The method in brief:
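Radiometric format: TYK2 with peptide substrate (20 μM) and 33P-ATP at 10 μM in HEPES pH 7.5, 1% DMSO, 120 min at room temp, P81 paper capture. Caliper mobility-shift format: TYK2 9.75 nM, peptide 30 at 3 uM, ATP 16 uM (also 1 mM), 25 min at 28° C.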

A further test concerns Tyk2-pSTAT4. The test can be described thus: IL-12 induced pSTAT4 in human PBMC. The format is cell-based. To be noted: read-out: Tyk2-pSTAT4 EC50. As for the experimental part: Human PBMC are isolated from buffy coat and are stored frozen for assays as needed. Cells for assay are thawed and resuspended in complete media containing serum, then cells are diluted to 1.67 E6 cells/ml so that 120 μl per well is 200,000 cells. 15 μl of compound or DMSO is added to the well at the desired concentrations and incubated at 1 hr at 37 C. 15 μl of stimulus (final concentration of 1.7 ng/mL IL-12) is added for 30 minutes prior to pSTAT4 and total STAT4 analysis using cell lysates prepared and analyzed by MSD reagents as per manufacturer protocol. The final DMSO concentration of compound in the assay is 0.1%.

For the next test, the target named is JAK2 (Homo sapiens (Human), UniProt O60674). The test can be described thus: JAK2 activity inhibition assay (radioactive kinase assay / Caliper assay). The format is biochemical. To be noted: read-out: JAK2 Ki. The method in brief: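 Mobility-shift (Caliper) read-out of phosphorylated peptide substrate. Compound diluted in 25 mM HEPES pH 7.5, 0.01% Brij-35, 0.01% Triton, 0.5 mM EGTA; enzyme added, then peptide plus ATP in 10 mM MgCl2. Incubated 25 min at 28° C, stopped with EDTA buffer.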
Chain of JAK2 (O60674 whole entry): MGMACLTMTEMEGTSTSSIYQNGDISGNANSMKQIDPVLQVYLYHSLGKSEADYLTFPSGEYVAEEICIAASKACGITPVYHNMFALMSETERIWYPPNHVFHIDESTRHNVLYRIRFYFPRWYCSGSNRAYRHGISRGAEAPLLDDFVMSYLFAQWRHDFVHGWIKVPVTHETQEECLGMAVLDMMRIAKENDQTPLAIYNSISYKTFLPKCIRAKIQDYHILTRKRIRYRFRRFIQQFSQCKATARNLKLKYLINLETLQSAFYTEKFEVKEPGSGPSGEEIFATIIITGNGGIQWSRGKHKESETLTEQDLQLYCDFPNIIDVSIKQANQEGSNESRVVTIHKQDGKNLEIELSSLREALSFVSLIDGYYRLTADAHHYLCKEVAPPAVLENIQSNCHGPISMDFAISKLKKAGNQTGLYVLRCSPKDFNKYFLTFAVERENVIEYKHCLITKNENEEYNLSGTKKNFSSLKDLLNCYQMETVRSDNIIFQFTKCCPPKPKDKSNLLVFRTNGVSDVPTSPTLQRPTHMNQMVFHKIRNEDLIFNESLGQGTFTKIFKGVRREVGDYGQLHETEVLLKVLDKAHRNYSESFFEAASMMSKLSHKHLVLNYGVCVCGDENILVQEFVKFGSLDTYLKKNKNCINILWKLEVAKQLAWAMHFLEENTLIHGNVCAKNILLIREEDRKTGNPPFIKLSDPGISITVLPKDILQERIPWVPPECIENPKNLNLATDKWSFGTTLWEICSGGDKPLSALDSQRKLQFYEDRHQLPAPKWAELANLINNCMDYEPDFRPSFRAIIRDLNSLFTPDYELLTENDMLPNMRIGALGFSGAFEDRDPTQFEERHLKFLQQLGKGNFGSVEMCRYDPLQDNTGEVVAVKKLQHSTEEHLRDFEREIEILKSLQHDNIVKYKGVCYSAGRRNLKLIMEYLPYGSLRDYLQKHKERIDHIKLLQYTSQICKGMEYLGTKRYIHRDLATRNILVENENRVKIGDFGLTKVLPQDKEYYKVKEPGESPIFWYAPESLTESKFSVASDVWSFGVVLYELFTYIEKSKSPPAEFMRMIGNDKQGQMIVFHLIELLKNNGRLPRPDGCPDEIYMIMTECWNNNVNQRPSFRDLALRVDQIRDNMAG

A further test deals with JAK2-pSTAT5. The experiment in a line: GM-CSF induced pSTAT5 in human PBMC. The note with it: read-out: JAK2-pSTAT5 EC50. The format is cell-based. As for the experimental part: Human PBMC are isolated from buffy coat and are stored frozen for assays as needed. […] 15 μl of compound or DMSO is added to the well at the desired concentrations and incubated at 1 hr at 37 C. 15 μl of stimulus (final concentration of 1.7 ng/mL IL-12) is added for 30 minutes prior to pSTAT4 and total STAT4 analysis using cell lysates prepared and analyzed by MSD reagents as per manufacturer protocol. The final DMSO concentration of compound in the assay is 0.1%.
Cells are prepared for analysis as in the above procedure and 15 μl of GM-CSF (final concentration 5 ng/mL) is added for 20 minutes prior to pSTAT5 and total STAT5 analysis using cell lysates prepared and analyzed by MSD reagents as per manufacturer protocol. The final DMSO concentration of compound in the assay is 0.1%.

Where [1] appears, read: IL-12 induced pSTAT4, human PBMC.
[2] abbreviates: GM-CSF induced pSTAT5, human PBMC.

Like-named read-outs stand apart in the source and are kept apart here.

Chain of TYK2 (P29597 whole entry): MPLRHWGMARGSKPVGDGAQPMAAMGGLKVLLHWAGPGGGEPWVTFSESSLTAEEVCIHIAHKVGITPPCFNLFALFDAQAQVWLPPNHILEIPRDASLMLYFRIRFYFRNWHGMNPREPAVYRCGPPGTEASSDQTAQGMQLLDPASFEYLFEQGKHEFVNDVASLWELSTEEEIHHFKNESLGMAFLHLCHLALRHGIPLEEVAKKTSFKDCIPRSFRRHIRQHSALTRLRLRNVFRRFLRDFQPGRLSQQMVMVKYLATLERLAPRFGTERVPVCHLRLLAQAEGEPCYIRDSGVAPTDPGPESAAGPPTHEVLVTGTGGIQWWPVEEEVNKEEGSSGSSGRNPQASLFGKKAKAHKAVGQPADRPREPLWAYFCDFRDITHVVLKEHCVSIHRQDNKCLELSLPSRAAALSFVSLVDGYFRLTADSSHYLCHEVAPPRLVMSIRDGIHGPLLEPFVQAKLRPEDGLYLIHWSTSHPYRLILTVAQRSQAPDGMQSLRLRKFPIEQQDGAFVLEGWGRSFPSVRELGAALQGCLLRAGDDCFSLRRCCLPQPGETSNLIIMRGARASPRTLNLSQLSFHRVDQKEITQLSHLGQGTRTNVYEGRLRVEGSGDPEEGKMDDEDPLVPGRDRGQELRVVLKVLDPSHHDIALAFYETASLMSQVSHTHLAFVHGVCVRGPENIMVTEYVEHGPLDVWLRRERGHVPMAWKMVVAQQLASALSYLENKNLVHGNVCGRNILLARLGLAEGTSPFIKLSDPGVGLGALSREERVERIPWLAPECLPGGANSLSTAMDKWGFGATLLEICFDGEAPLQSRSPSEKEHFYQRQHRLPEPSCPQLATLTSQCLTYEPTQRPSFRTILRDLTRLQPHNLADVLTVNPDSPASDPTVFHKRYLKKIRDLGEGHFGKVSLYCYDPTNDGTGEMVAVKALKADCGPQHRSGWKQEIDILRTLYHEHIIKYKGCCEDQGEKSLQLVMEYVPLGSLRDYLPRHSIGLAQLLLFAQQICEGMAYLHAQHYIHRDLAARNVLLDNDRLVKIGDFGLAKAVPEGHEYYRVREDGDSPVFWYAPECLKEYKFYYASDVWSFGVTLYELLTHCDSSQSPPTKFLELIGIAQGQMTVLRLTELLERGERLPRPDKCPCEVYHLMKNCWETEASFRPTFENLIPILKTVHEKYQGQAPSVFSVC

For orientation: Ki means the dissociation constant of the complex between target and ligand, obtained from inhibition or displacement. One may read the EC50 as the concentration giving half of the maximal effect. Take `CC1(O)CCN(c2ccc(Nc3cc(-c4c(F)cccc4F)nc4c3C(=O)NC4)nc2)CC1` [Compound I-137, 2-(2,6-difluorophenyl)-4-((5-(4-hydroxy-4-methylpiperidin-1-yl)pyridin-2-yl)amino)-6,7-dihydro-5H-pyrrolo[3,4-b]pyridin-5-one]: the inhibitory constant (Ki) is < 10 nM at TYK2 and 10 to 100 nM at JAK2. For the same compound, the EC50 with Tyk2-pSTAT4 (setting [1]) and with JAK2-pSTAT5 (setting [2]) was < 2000 nM each time.
Turning to `CC(C)NC(=O)c1ccc(Nc2cc(-c3c(F)cccc3F)nc3c2C(=O)NC3)nc1` [Compound I-138, 6-((2-(2,6-difluorophenyl)-5-oxo-6,7-dihydro-5H-pyrrolo[3,4-b]pyridin-4-yl)amino)-N-isopropylnicotinamide], the Ki at TYK2 was < 10 nM; at JAK2 it was 10 to 100 nM. The EC50 was < 2000 nM in the test on Tyk2-pSTAT4 (Homo sapiens, PBMC) and 2000 to 20000 nM with JAK2-pSTAT5 (Homo sapiens, PBMC).
Consider `O=C(NCC(F)(F)F)c1ccc(Nc2cc(-c3c(F)cccc3F)nc3c2C(=O)NC3)nc1` [Compound I-140, 6-((2-(2,6-difluorophenyl)-5-oxo-6,7-dihydro-5H-pyrrolo[3,4-b]pyridin-4-yl)amino)-N-(2,2,2-trifluoroethyl)nicotinamide], for which the Ki at TYK2 is < 10 nM; on JAK2, 10 to 100 nM. Moreover, the EC50 in the test with Tyk2-pSTAT4 (setting [1]) was < 2000 nM; in the test on JAK2-pSTAT5 (setting [2]), 2000 to 20000 nM.
For `O=C1NCc2nc(-c3c(F)cccc3F)cc(Nc3ccc(N4CCC(N5CCOCC5)CC4)cn3)c21` [Compound I-142, 2-(2,6-difluorophenyl)-4-((5-(4-morpholinopiperidin-1-yl)pyridin-2-yl)amino)-6,7-dihydro-5H-pyrrolo[3,4-b]pyridin-5-one] the same measures were < 10 nM, 10 to 100 nM, < 2000 nM and > 20000 nM.
The corresponding values for `O=C1NCc2nc(-c3c(F)cccc3F)cc(Nc3ccc(N4CCC(O)CC4)cn3)c21` [Compound I-147, 2-(2,6-difluorophenyl)-4-((5-(4-hydroxypiperidin-1-yl)pyridin-2-yl)amino)-6,7-dihydro-5H-pyrrolo[3,4-b]pyridin-5-one] are < 10 nM, 10 to 100 nM, < 2000 nM and < 2000 nM.
The corresponding values for `O=C1NCc2nc(-c3c(F)cccc3F)cc(Nc3ccc(OCCN4CCOCC4)cn3)c21` [Compound I-148, 2-(2,6-difluorophenyl)-4-((5-(2-morpholinoethoxy)pyridin-2-yl)amino)-6,7-dihydro-5H-pyrrolo[3,4-b]pyridin-5-one] are < 10 nM, 10 to 100 nM, < 2000 nM and 2000 to 20000 nM.
On to `CN1CCC(C)(c2ccc(Nc3nc(-c4c(F)cccc4F)nc4c3C(=O)NC4)cc2)C1=O` (stereo not shown) [Compound I-150, 2-(2,6-difluorophenyl)-4-((4-(1,3-dimethyl-2-oxopyrrolidin-3-yl)phenyl)amino)-6,7-dihydro-5H-pyrrolo[3,4-d]pyrimidin-5-one], for which the Ki on TYK2 was < 10 nM; at JAK2, 10 to 100 nM. In addition, the values for the concentration for a half-maximal effect (EC50) in the test on Tyk2-pSTAT4 (setting [1]) and in the test with JAK2-pSTAT5 (setting [2]) were < 2000 nM and 2000 to 20000 nM, respectively.
With `O=C1NCc2nc(-c3c(F)cccc3F)nc(Nc3ccc([C@H]4CCCNC4=O)cc3)c21` [Compound I-154, (R)-2-(2,6-difluorophenyl)-4-((4-(2-oxopiperidin-3-yl)phenyl)amino)-6,7-dihydro-5H-pyrrolo[3,4-d]pyrimidin-5-one], the Ki at TYK2 was < 10 nM; on JAK2, 100 to 1000 nM. The EC50 was < 2000 nM in the test on Tyk2-pSTAT4 (setting [1]) and > 20000 nM in the test with JAK2-pSTAT5 (setting [2]).
The corresponding values for `CC(C)(O)CN1CCC(c2ccc(Nc3nc(-c4c(F)cccc4F)nc4c3C(=O)NC4)cc2)C1=O` (stereo not shown) [Compound I-161, 2-(2,6-difluorophenyl)-4-((4-(1-(2-hydroxy-2-methylpropyl)-2-oxopyrrolidin-3-yl)phenyl)amino)-6,7-dihydro-5H-pyrrolo[3,4-d]pyrimidin-5-one] are < 10 nM, 100 to 1000 nM, < 2000 nM and 2000 to 20000 nM.
The corresponding values for `CN1CCN(c2ccc(Nc3cc(-c4c(F)cccc4F)nc4c3C(=O)NC4)nc2)CC1` [Compound I-163, 2-(2,6-difluorophenyl)-4-((5-(4-methylpiperazin-1-yl)pyridin-2-yl)amino)-6,7-dihydro-5H-pyrrolo[3,4-b]pyridin-5-one] are < 10 nM, 10 to 100 nM, < 2000 nM and 2000 to 20000 nM.
On to `COc1ccc(Nc2cc(-c3c(F)cccc3F)nc3c2C(=O)NC3)nc1` [Compound I-167, 2-(2,6-difluorophenyl)-4-((5-methoxypyridin-2-yl)amino)-6,7-dihydro-5H-pyrrolo[3,4-b]pyridin-5-one], for which the results for the Ki at TYK2 and at JAK2 were < 10 nM and 100 to 1000 nM, respectively. In addition, the EC50 with Tyk2-pSTAT4 (setting [1]) is < 2000 nM; in the test on JAK2-pSTAT5 (setting [2]) it was > 20000 nM.
For `COc1ccc(Nc2cc(-c3c(F)cccc3F)nc3c2C(=O)NC3)nc1OC` [Compound I-170, 2-(2,6-difluorophenyl)-4-((5,6-dimethoxypyridin-2-yl)amino)-6,7-dihydro-5H-pyrrolo[3,4-b]pyridin-5-one] the same measures were < 10 nM, 10 to 100 nM, < 2000 nM and 2000 to 20000 nM.
For the compound `O=C1NCc2nc(-c3c(F)cccc3F)cc(Nc3ccc(N4CCOCC4)cn3)c21` [Compound I-171, 2-(2,6-difluorophenyl)-4-((5-morpholinopyridin-2-yl)amino)-6,7-dihydro-5H-pyrrolo[3,4-b]pyridin-5-one], the figures for the Ki on TYK2 and at JAK2 were < 10 nM and 10 to 100 nM, respectively. Further, the EC50 was < 2000 nM in the test on Tyk2-pSTAT4 (setting [1]) and 2000 to 20000 nM with JAK2-pSTAT5 (setting [2]).
`O=C1NCc2nc(-c3c(F)cccc3F)cc(Nc3ccc(N4CCC(F)(F)CC4)cn3)c21` [Compound I-182, 2-(2,6-difluorophenyl)-4-((5-(4,4-difluoropiperidin-1-yl)pyridin-2-yl)amino)-6,7-dihydro-5H-pyrrolo[3,4-b]pyridin-5-one]: the values for the Ki at TYK2 and on JAK2 were < 10 nM and 10 to 100 nM, respectively. The EC50 with Tyk2-pSTAT4 (setting [1]) is < 2000 nM; in the test with JAK2-pSTAT5 (setting [2]) it was 2000 to 20000 nM.
For `CC(C)(C(=O)N1CCCC1)c1ccc(Nc2nc(-c3c(F)cccc3F)nc3c2C(=O)NC3)cc1` [Compound I-196, 2-(2,6-difluorophenyl)-4-((4-(2-methyl-1-oxo-1-(pyrrolidin-1-yl)propan-2-yl)phenyl)amino)-6,7-dihydro-5H-pyrrolo[3,4-d]pyrimidin-5-one] the same measures were < 10 nM, 100 to 1000 nM, < 2000 nM and > 20000 nM.
`C[C@H](C(=O)N1CCCCC1)c1ccc(Nc2nc(-c3c(F)cccc3F)nc3c2C(=O)NC3)cc1` [Compound I-206, (S)-2-(2,6-difluorophenyl)-4-((4-(1-oxo-1-(piperidin-1-yl)propan-2-yl)phenyl)amino)-6,7-dihydro-5H-pyrrolo[3,4-d]pyrimidin-5-one]: the Ki on TYK2 was < 10 nM; at JAK2, 100 to 1000 nM. In addition, the EC50 in the test on Tyk2-pSTAT4 (Homo sapiens, PBMC) was < 2000 nM; in the test with JAK2-pSTAT5 (Homo sapiens, PBMC) it was > 20000 nM.
Turning to `C[C@@H](C(=O)N1CCCCC1)c1ccc(Nc2nc(-c3c(F)cccc3F)nc3c2C(=O)NC3)cc1` [Compound I-207, (R)-2-(2,6-difluorophenyl)-4-((4-(1-oxo-1-(piperidin-1-yl)propan-2-yl)phenyl)amino)-6,7-dihydro-5H-pyrrolo[3,4-d]pyrimidin-5-one], the Ki on TYK2 was < 10 nM; on JAK2, 100 to 1000 nM. The EC50 is < 2000 nM in the test with Tyk2-pSTAT4 (Homo sapiens, PBMC) and 2000 to 20000 nM in the test on JAK2-pSTAT5 (Homo sapiens, PBMC).
For `O=C1NCc2nc(-c3c(F)cccc3F)cc(Nc3ccc(N4CC(O)C4)cn3)c21` [Compound I-214, 2-(2,6-difluorophenyl)-4-((5-(3-hydroxyazetidin-1-yl)pyridin-2-yl)amino)-6,7-dihydro-5H-pyrrolo[3,4-b]pyridin-5-one], the inhibitory constant (Ki) was < 10 nM on TYK2 and 10 to 100 nM at JAK2. For the same compound, the EC50 was < 2000 nM in the test on Tyk2-pSTAT4 (setting [1]) and 2000 to 20000 nM in the test with JAK2-pSTAT5 (setting [2]).
The corresponding values for `CC(C)(C)N1CCN(c2ccc(Nc3cc(-c4c(F)cccc4F)nc4c3C(=O)NC4)nc2)CC1` [Compound I-227, 4-((5-(4-(tert-butyl)piperazin-1-yl)pyridin-2-yl)amino)-2-(2,6-difluorophenyl)-6,7-dihydro-5H-pyrrolo[3,4-b]pyridin-5-one] are < 10 nM, < 10 nM, < 2000 nM and < 2000 nM.

For the origin of these results see patent US10196390B2, “TYK2 inhibitors and uses thereof” (Nimbus Lakshmi, Inc., priority 2014, dated 2019).
